Assays:
AMPK = experiment: Measurement of AMPK activity by Western blot in C2C12 cells; type: cell-based; set-up: key to AMPK activity (degree of phosphorylation of serine-79 and threonine-172): fold increase in threonine-172 phosphorylation; AMPK activity (degree of phosphorylation of serine-79): unit not given here; conditions: 10 μM for 50 minutes; for AMPK activity (degree of phosphorylation of serine-79 and threonine-172): no superscript: Western blot of serine-79 and threonine-172 phosphorylation; for AMPK activity (class: degree of phosphorylation of threonine-172): strong/mild/weak
In short: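 Differentiated C2C12 cells were exposed to test material at 10 μM for 50 minutes, then lysed. AMPK activity was taken from Western blots of Thr-172 phosphorylation and acetyl CoA carboxylase Ser-79 phosphorylation, with ERK as loading reference. Thr-172 rise was graded strong (≥3-fold), mild (1-3-fold) or weak (<1-fold).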

C2C12 muscle cells = experiment: Analysis of glucose absorption (2-deoxyglucose) in differentiated C2C12 muscle cells; type: cell-based; conditions: test materials 10 μM, times relative to control group
In short: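 Differentiated C2C12 myotubes (6 days in 1% serum) held 3 h in KRB with 5 mM glucose, then given test material at 10 μM. After 30 min, 0.2 μCi 2-deoxyglucose added for 20 min; uptake measured by radioactive counting of NaOH lysates.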

| SMILES | AMPK activity (degree of phosphorylation of serine-79 and threonine-172) (AMPK) | Glucose absorption (C2C12 muscle cells) | AMPK activity (class: degree of phosphorylation of threonine-172) (AMPK) | AMPK activity (degree of phosphorylation of serine-79) (AMPK; footnote a: Western blot of serine-79 phosphorylation) |
| --- | --- | --- | --- | --- |
| COc1ccc(CNc2nc(N3CCCC3)nc3ccccc23)cc1 [Compound 283, (4-Methoxybenzyl)-(2-pyrrolidino-1-ylquinazolino-4-yl)-amine] | 1.1 | 1.0 |  |  |
| COc1cccc(CNc2nc(C(OC)c3ccccc3)nc3ccccc23)c1OC (stereo not shown) [Compound 364, (2,3-Dimethoxybenzyl)-[2-(methoxyphenylmethyl)-quinazolino-4-yl]-amine] | 1.2 | 1.3 |  |  |
| CCCc1nc(NCc2cccc(OC)c2)c2ccccc2n1 [Compound 394, (3-Methoxybenzyl)-(2-propylquinazolino-4-yl)-amine] | 4.5 | 1.3 |  |  |
| CC(C)c1nc(NCCc2ccccc2)c2ccccc2n1 [Compound 179, (2-Isopropylquinazolino-4-yl)-phenethylamine] | 3.8 | 2.9 | strong (“strong” means that the degree of phosphorylation of threonine-172 increased by 3 times or more) |  |
| COc1ccc(OC)c(CNc2nc(C(C)c3ccccc3)nc3ccccc23)c1 (stereo not shown) [Compound 380, (2,5-Dimethoxybenzyl)-[2-(1-phenylethyl)-quinazolino-4-yl]-amine] | 1.9 | 1.0 |  |  |
| Cc1nc(NCc2ccccc2)c2ccccc2n1 [Compound 163, Benzyl-(2-methylquinazolino-4-yl)-amine] | 2.8 | 2.5 | strong (“strong” means that the degree of phosphorylation of threonine-172 increased by 3 times or more) |  |
| COc1ccc(CNc2nc(C(C)c3ccccc3)nc3ccccc23)cc1OC (stereo not shown) [Compound 377, (3,4-Dimethoxybenzyl)-[2-(1-phenylethyl)-quinazolino-4-yl]-amine] | 2.3 | 1.1 |  |  |
| c1ccc2c(NCc3ccc4c(c3)OCO4)nc(N3CCCC3)nc2c1 [Compound 307, Benzo[1,3]dioxol-5-ylmethyl-(2-pyrrolidino-1-ylquinazolino-4-yl)-amine] | 2.0 | 0.8 |  |  |
| COc1ccc(CNc2nc(C3CC3)nc3ccccc23)cc1OC [Compound 388, (2-Cyclopropylquinazolino-4-yl)-(3,4-dimethoxybenzyl)-amine] | 2.8 | 1.2 |  |  |
| Cc1nc(NCc2cccc3ccccc23)c2ccccc2n1 [Compound 169, (2-Methylquinazolino-4-yl)-naphthaleno-1-ylmethylamine] | 6.6 | 2.5 | strong (“strong” means that the degree of phosphorylation of threonine-172 increased by 3 times or more) |  |
| Brc1ccc(CCNc2nc(-c3ccccc3)nc3ccccc23)cc1 [Compound 137, [2-(4-Bromophenyl)-ethyl]-(2-phenylquinazolino-4-yl)-amine] | 3.1 | 2.4 | strong (“strong” means that the degree of phosphorylation of threonine-172 increased by 3 times or more) |  |
| c1ccc(-c2nc(NCc3cccc4ccccc34)c3ccccc3n2)nc1 [Compound 229, Naphthaleno-1-ylmethyl-(2-pyridino-2-ylquinazolino-4-yl)-amine] | 4.7 | 1.9 | strong (“strong” means that the degree of phosphorylation of threonine-172 increased by 3 times or more) |  |
| CCSc1nc(NC(C)C)c2ccccc2n1 [Compound 8, (2-Ethylsulfanylquinazolino-4-yl)-isopropylamine] |  | 1.2 |  | 3.0^a |
| Cc1nc(NCCc2ccccc2)c2ccccc2n1 [Compound 167, (2-Methylquinazolino-4-yl)-phenethylamine] | 6.7 | 3.2 | strong (“strong” means that the degree of phosphorylation of threonine-172 increased by 3 times or more) |  |
| c1ccc(CCNc2nc(C3CCCCC3)nc3ccccc23)cc1 [Compound 203, (2-Cyclohexylquinazolino-4-yl)-phenethylamine] | 3.9 | 2.0 | strong (“strong” means that the degree of phosphorylation of threonine-172 increased by 3 times or more) |  |
| Clc1ccccc1CNc1nc(-c2ccccc2)nc2ccccc12 [Compound 109, (2-Chlorobenzyl)-(2-phenylquinazolino-4-yl)-amine] | 1.9 | 1.3 | strong (“strong” means that the degree of phosphorylation of threonine-172 increased by 3 times or more) |  |
| CCCc1nc(NCc2ccc(OC)cc2)c2ccccc2n1 [Compound 395, (4-Methoxybenzyl)-(2-propylquinazolino-4-yl)-amine] | 7.0 | 1.2 |  |  |
| COc1cc(CNc2nc(C(C)c3ccccc3)nc3ccccc23)cc(OC)c1 (stereo not shown) [Compound 376, (3,5-Dimethoxybenzyl)-[2-(1-phenylethyl)-quinazolino-4-yl]-amine] | 1.1 | 1.1 |  |  |
| CCCc1nc(NCc2ccc(OC)c(OC)c2)c2ccccc2n1 [Compound 399, (3,4-Dimethoxybenzyl)-(2-propylquinazolino-4-yl)-amine] | 4.9 | 1.2 |  |  |
| c1ccc(-c2nc(NCCN3CCOCC3)c3ccccc3n2)cc1 [Compound 106, (2-Morpholino-4-ylethyl)-(2-phenylquinazolino-4-yl)-amine] | 1.3 | 1.8 | mild (“mild” means that the degree of phosphorylation of threonine-172 increased by 1 to 3 times) |  |
| Cc1ccc(CCNc2nc(-c3ccccc3)nc3ccccc23)cc1 [Compound 119, (2-Phenylquinazolino-4-yl)-(2-p-tollylethyl)-amine] | 2.3 | 2.6 | strong (“strong” means that the degree of phosphorylation of threonine-172 increased by 3 times or more) |  |
| COc1cc(CNc2nc(-c3ccco3)nc3ccccc23)cc(OC)c1OC [Compound 345, (2-Furano-2-ylquinazolino-4-yl)-(3,4,5-trimethoxybenzyl)-amine] | 1.1 | 1.3 |  |  |
| Cc1nc(NCc2cccc(C(F)(F)F)c2)c2ccccc2n1 [Compound 166, (2-Methylquinazolino-4-yl)-(3-trifluoromethylbenzyl)-amine] | 3.8 | 2.8 | strong (“strong” means that the degree of phosphorylation of threonine-172 increased by 3 times or more) |  |
| COc1cc(CNc2ncnc3ccccc23)cc(OC)c1 [Compound 409, (3,5-Dimethoxybenzyl)-quinazolino-4-ylamine] | 3.3 | 1.6 |  |  |
| Clc1cccc(CNc2nc(-c3ccccc3)nc3ccccc23)c1 [Compound 145, (3-Chlorobenzyl)-(2-phenylquinazolino-4-yl)-amine] | 2.7 | 2.2 | strong (“strong” means that the degree of phosphorylation of threonine-172 increased by 3 times or more) |  |
| CCCCN(C)c1nc(-c2ccccc2)nc2ccccc12 [Compound 138, Butylmethyl-(2-phenylquinazolino-4-yl)-amine] | 2.9 | 2.4 | strong (“strong” means that the degree of phosphorylation of threonine-172 increased by 3 times or more) |  |
| FCCNc1nc(-c2ccccc2)nc2ccccc12 [Compound 114, (2-Fluoro-ethyl)-(2-phenylquinazolino-4-yl)-amine] | 2.0 | 2.2 | strong (“strong” means that the degree of phosphorylation of threonine-172 increased by 3 times or more) |  |
| Fc1ccc(F)c(CNc2nc(-c3ccccc3)nc3ccccc23)c1 [Compound 135, (2,5-Difluorobenzyl)-(2-phenylquinazolino-4-yl)-amine] | 2.0 | 2.6 | strong (“strong” means that the degree of phosphorylation of threonine-172 increased by 3 times or more) |  |
| CCSc1nc(NCc2cccc3ccccc23)c2ccccc2n1 [Compound 35, (2-Ethylsulfanylquinazolino-4-yl)-naphthaleno-1-ylmethyl amine] |  | 1.9 | strong (“strong” means that the degree of phosphorylation of threonine-172 increased by 3 times or more) |  |
